pIC50: −log10 of the molar value. Read-outs that look alike come from different tables or passages of the source.
What was measured:
hPAD4 = hPAD4 (Homo sapiens, UniProt Q9UM07); assay: hPAD4 RFMS (RapidFire mass spectrometry) PAD4 inhibition assay; type: biochemical; conditions: hPAD4 enzyme, RFMS readout; for IC50: read-out: hPAD4 RFMS pIC50 (converted); for pIC50: read-out: hPAD4 RFMS IC50;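 for hPAD4 RFMS pIC50: grade E means pIC50 at most 4 and F means pIC50 4.0 to 5.0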
Description: (§1) Compounds of the present invention were assayed as inhibitors of PAD4 using the assay protocol described below.
(§2) Compound stock solutions were stored at RT. […] Final assay conditions were as follows:
(§3) Total incubation time: 65 mins at 37° C.
(§4) Stop solution: 40 μl 5% TCA in ACN
(§5) The compound numbers correspond to the compound numbers in Table 1. […] The term pIC50=−log(IC50). […] “NA” stands for “not assayed.”

mPAD4 = mPAD4 (Mus musculus, UniProt Q9Z183); assay: mPAD4 RFMS PAD4 inhibition assay; type: biochemical; conditions: mPAD4, RFMS readout; for IC50: pIC50=−log(IC50), read-out: mPAD4 RFMS pIC50 (converted); for pIC50: read-out: mPAD4 RFMS IC50;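 for mPAD4 RFMS pIC50: grade E means pIC50 at most 4 and F means pIC50 4.0 to 5.0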
Description: as §1, §2, §3, §4, §5

Chain of hPAD4 (Q9UM07 whole entry): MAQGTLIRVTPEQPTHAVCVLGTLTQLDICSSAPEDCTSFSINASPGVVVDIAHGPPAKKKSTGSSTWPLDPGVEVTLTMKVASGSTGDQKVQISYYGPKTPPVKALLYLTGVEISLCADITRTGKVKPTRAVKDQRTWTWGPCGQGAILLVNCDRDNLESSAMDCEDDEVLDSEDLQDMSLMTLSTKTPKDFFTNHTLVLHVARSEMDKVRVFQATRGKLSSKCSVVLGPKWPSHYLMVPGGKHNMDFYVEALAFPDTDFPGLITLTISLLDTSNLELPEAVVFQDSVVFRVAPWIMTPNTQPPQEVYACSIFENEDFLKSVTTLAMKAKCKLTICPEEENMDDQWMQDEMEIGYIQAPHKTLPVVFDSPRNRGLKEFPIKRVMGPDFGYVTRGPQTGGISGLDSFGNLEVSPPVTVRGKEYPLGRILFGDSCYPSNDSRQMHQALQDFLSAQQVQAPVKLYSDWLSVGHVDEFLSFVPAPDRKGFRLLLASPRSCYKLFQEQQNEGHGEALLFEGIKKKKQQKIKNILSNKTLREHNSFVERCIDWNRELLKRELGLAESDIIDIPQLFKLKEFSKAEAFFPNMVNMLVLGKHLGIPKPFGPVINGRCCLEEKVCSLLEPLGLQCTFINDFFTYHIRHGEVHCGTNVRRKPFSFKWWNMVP
Chain of mPAD4 (Q9Z183 whole entry): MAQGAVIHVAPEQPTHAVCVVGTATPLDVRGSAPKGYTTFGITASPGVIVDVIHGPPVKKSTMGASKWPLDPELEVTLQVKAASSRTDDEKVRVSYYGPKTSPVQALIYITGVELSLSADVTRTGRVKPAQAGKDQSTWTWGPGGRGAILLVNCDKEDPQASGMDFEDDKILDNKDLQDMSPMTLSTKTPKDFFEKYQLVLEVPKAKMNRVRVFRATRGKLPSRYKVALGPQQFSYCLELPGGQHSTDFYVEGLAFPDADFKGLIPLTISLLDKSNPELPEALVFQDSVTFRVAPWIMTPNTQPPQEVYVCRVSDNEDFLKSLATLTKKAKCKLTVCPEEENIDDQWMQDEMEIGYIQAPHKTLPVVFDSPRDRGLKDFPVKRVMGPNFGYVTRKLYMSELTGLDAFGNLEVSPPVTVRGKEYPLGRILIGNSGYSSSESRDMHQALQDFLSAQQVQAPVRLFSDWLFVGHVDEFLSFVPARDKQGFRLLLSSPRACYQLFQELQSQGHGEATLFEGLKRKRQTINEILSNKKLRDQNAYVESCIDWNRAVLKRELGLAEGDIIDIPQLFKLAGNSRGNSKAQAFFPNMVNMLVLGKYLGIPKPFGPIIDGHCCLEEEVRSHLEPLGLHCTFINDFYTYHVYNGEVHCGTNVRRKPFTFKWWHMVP

COc1cc(C(=O)N2CC[C@@H]3CCN[C@@H]3C2)cc2nc(-c3cc4cccnc4n3CC3CC3)n(C)c12 [Compound I-11]
IC50 (hPAD4; pIC50=−log(IC50)): < 1000 nM
pIC50 (hPAD4): > 6.00
IC50 (mPAD4): < 1000 nM
pIC50 (mPAD4): > 6.00

COc1cc(C(=O)N2CC[C@]3(CNCCC3(F)F)C2)cc2nc(-c3cc4cccnc4n3CC3CC3)n(C)c12 [Compound I-107]
IC50 (hPAD4; pIC50=−log(IC50)): 10000 to 100000 nM
pIC50 (hPAD4): < 5.00
IC50 (mPAD4): 10000 to 100000 nM
pIC50 (mPAD4): < 5.00

Cn1c(-c2cc3cccnc3n2CC2CC2)nc2cc(C(=O)N3C[C@H](N)C[C@@H](F)C3)cc(OC(F)F)c21 [Compound I-98]
IC50 (hPAD4; pIC50=−log(IC50)): < 1000 nM
pIC50 (hPAD4): > 6.00
IC50 (mPAD4): < 1000 nM
pIC50 (mPAD4): > 6.00

Cn1c(-c2cc3cccnc3n2CC2CC2)nc2cc(C(=O)N3CCC[C@@H](N)C3)cc(CO)c21 [Compound I-128, {5-[(3R)-3-aminopiperidine-1-carbonyl]-2-[1-(cyclopropylmethyl)-1H-pyrrolo[2,3-b]pyridin-2-yl]-1-methyl-1H-1,3-benzodiazol-7-yl}methanol]
IC50 (hPAD4; pIC50=−log(IC50)): 1000 to 10000 nM
pIC50 (hPAD4): 5.30 to 6.00
IC50 (mPAD4): 1000 to 10000 nM
pIC50 (mPAD4): 5.30 to 6.00

Cn1c(-c2cc3cccnc3n2CC2CC(C)(O)C2)nc2cc(C(=O)N3CCC[C@@H](N)C3)ccc21 (stereo partly drawn) [Compound I-110, 3-[(2-{5-[(3R)-3-Aminopiperidine-1-carbonyl]-1-methyl-1H-1,3-benzodiazol-2-yl}-1H-pyrrolo[2,3-b]pyridin-1-yl)methyl]-1-methylcyclobutan-1-ol]
IC50 (hPAD4; pIC50=−log(IC50)): 1000 to 10000 nM
pIC50 (hPAD4): 5.30 to 6.00
IC50 (mPAD4): 10000 to 100000 nM
pIC50 (mPAD4): < 5.00

COc1cc(C(=O)N2CCC[C@@H](N)C2)cc2nc(-c3cc4cccnc4n3CC3CC(C)(O)C3)n(C)c12 (stereo partly drawn) [Compound I-113]
IC50 (hPAD4; pIC50=−log(IC50)): 1000 to 10000 nM
pIC50 (hPAD4): 5.30 to 6.00
IC50 (mPAD4): 1000 to 10000 nM
pIC50 (mPAD4): 5.00 to 5.30

COc1cc(C(=O)N2C[C@@H]3[C@@H](N)[C@@H]3C2)cc2nc(-c3cc4cccnc4n3CC3CC3)n(C)c12 [Compound I-76]
IC50 (hPAD4; pIC50=−log(IC50)): 10000 to 100000 nM
pIC50 (hPAD4): < 5.00
IC50 (mPAD4): 10000 to 100000 nM
pIC50 (mPAD4): < 5.00

COc1cc(C(=O)N2CC3(CCCNC3)C2)cc2nc(-c3cc4cccnc4n3CC3CC3)n(C)c12 [Compound I-27]
IC50 (hPAD4; pIC50=−log(IC50)): 1000 to 10000 nM
pIC50 (hPAD4): 5.30 to 6.00
IC50 (mPAD4): 1000 to 10000 nM
pIC50 (mPAD4): 5.30 to 6.00

CO[C@]1(C)C[C@H](Cn2c(-c3cc4cccnc4n3CC3CC3)nc3cc(C(=O)N4C[C@H]5CC[C@@H]4[C@@H]5N)cc(F)c32)C1 [Compound I-223]
IC50 (hPAD4; pIC50=−log(IC50)): < 1000 nM
pIC50 (hPAD4): > 6.00
IC50 (mPAD4): < 1000 nM
pIC50 (mPAD4): > 6.00

COc1cc(C(=O)N2C[C@H]3CC[C@@H]2[C@@H]3N)cc2nc(-c3cc4cccnc4n3CC3CC3)n([C@H]3C[C@@H](OC)C3)c12 [Compound I-219]
IC50 (hPAD4; pIC50=−log(IC50)): < 1000 nM
pIC50 (hPAD4): > 6.00
IC50 (mPAD4): 1000 to 10000 nM
pIC50 (mPAD4): 5.30 to 6.00

COc1cc(C(=O)N2C[C@H]3CC[C@@H]2[C@@H]3N)cc2nc(-c3cc4cccnc4n3CC3CC3)n(CC3CCOC3)c12 (stereo partly drawn) [Compound I-217]
IC50 (hPAD4; pIC50=−log(IC50)): < 1000 nM
pIC50 (hPAD4): > 6.00
IC50 (mPAD4): < 1000 nM
pIC50 (mPAD4): > 6.00

CCn1c(-c2nc3cc(C(=O)N4C[C@H]5CC[C@@H]4[C@@H]5N)cc(OC)c3n2C)cc2ccc(OC)nc21 [Compound I-139]
IC50 (hPAD4; pIC50=−log(IC50)): < 1000 nM
pIC50 (hPAD4): > 6.00
IC50 (mPAD4): < 1000 nM
pIC50 (mPAD4): > 6.00

Cn1c(-c2cc3cccnc3n2CC2CC2)nc2cc(C(=O)N3CC[C@H](F)[C@@H](N)C3)ccc21 [Compound I-54]
IC50 (hPAD4; pIC50=−log(IC50)): 1000 to 10000 nM
pIC50 (hPAD4): 5.00 to 5.30
IC50 (mPAD4): 10000 to 100000 nM
pIC50 (mPAD4): < 5.00

COc1cc(C(=O)N2C[C@H]3CC[C@H]2[C@H]3N)cc2nc(-c3cc4cc(/C=C/c5ccc(C(F)(F)F)cc5)ccc4n3CC3CC3)n(C)c12 [Compound I-361, ((1S,4R)-7-amino-2-azabicyclo[2.2.1]heptan-2-yl)(2-(1-(cyclopropylmethyl)-5-((E)-4-(trifluoromethyl)styryl)-1H-indol-2-yl)-7-methoxy-1-methyl-1H-benzo[d]imidazol-5-yl)methanone]
IC50 (hPAD4; pIC50=−log(IC50)): < 1000 nM
pIC50 (hPAD4): > 6.00

COc1cc(C(=O)N2C[C@H]3CCC2[C@H]3N)cc2nc(-c3cc4ccc(C5=Cc6ccccc6C5)cc4n3CC3CC3)n(C)c12 [Compound I-368]
IC50 (hPAD4; pIC50=−log(IC50)): < 1000 nM
pIC50 (hPAD4): > 6.00

Cn1c(-c2cc3cccnc3n2CC2CC2)nc2cc(C(=O)N3CC4CNC4C3)ccc21 (stereo not drawn) [Compound I-38]
IC50 (hPAD4; pIC50=−log(IC50)): > 100000 nM
pIC50 (hPAD4): < 5.00

COc1cc(C(=O)N2C[C@H]3CC[C@@H]2[C@@H]3N)cc2nc(-c3cc4cc(NCC5CC5)ccc4n3CC3CC3)n(C)c12 [Compound I-372]
hPAD4 RFMS pIC50 (hPAD4; pIC50=−log(IC50)): G/H
pIC50 (hPAD4): 5.30 to 6.00

COc1cc(C(=O)N2CCC3CCNC3C2)cc2nc(-c3cc4cccnc4n3CC3CC3)n(C)c12 (stereo not drawn) [Compound I-8]
IC50 (hPAD4; pIC50=−log(IC50)): < 1000 nM
pIC50 (hPAD4): > 6.00

COc1cc(C(=O)N2C[C@H]3CCC2[C@H]3N)cc2nc(-c3cc4ccc(/C=C/CCc5ccccc5)cc4n3CC3CC3)n(C)c12 [Compound I-369]
IC50 (hPAD4; pIC50=−log(IC50)): < 1000 nM
pIC50 (hPAD4): > 6.00

COc1cc(C(=O)N2C[C@H]3CCC2[C@H]3N)cc2nc(-c3cc4ccc(/C=C/c5ccccc5)cc4n3CC3CC3)n(C)c12 [Compound I-365]
IC50 (hPAD4; pIC50=−log(IC50)): < 1000 nM
pIC50 (hPAD4): > 6.00

Cn1c(-c2cc3cccnc3n2CC2CC2)nc2cc(C(=O)N3CCCC4(CCCNC4)C3)ccc21 (stereo not drawn) [Compound I-45]
IC50 (hPAD4; pIC50=−log(IC50)): > 100000 nM
pIC50 (hPAD4): < 5.00

COc1cc(C(=O)N2C[C@H]3CC[C@@H]2[C@@H]3N)cc2nc(-c3cc4ccc(C#N)cc4n3CC3CC3)n(C)c12 [Compound I-371]
IC50 (hPAD4; pIC50=−log(IC50)): < 1000 nM
pIC50 (hPAD4): > 6.00

COc1cc(C(=O)N2C[C@H]3CC[C@@H]2[C@@H]3N)cc2nc(-c3cc4ccc(N(C)CCC5CC5)cc4n3CC3CC3)n(C)c12 [Compound I-376]
IC50 (hPAD4; pIC50=−log(IC50)): < 1000 nM
pIC50 (hPAD4): > 6.00

COc1ccc2cc(-c3nc4cc(C(=O)N5C[C@H](N)CC[C@@H]5C)ccc4n3C)n(CC3CC3)c2n1 [Compound I-352, ((2S,5R)-5-amino-2-methylpiperidin-1-yl)(2-(1-(cyclopropylmethyl)-6-methoxy-1H-pyrrolo[2,3-b]pyridin-2-yl)-1-methyl-1H-benzo[d]imidazol-5-yl)methanone]
IC50 (hPAD4; pIC50=−log(IC50)): < 1000 nM
pIC50 (hPAD4): > 6.00

Cn1c(-c2cc3cccnc3n2CC2CC2)nc2cc(C(=O)N3CC4CCC(C3)C4N)ccc21 (stereo not drawn) [Compound I-50]
IC50 (hPAD4; pIC50=−log(IC50)): > 100000 nM
pIC50 (hPAD4): < 5.00

COc1ccc2cc(-c3nc4cc(C(=O)N5C[C@@H](N)C[C@H](F)C5)ccc4n3C)n(CC3CC3)c2n1 [Compound I-354, ((3S,5S)-3-amino-5-fluoropiperidin-1-yl)(2-(1-(cyclopropylmethyl)-6-methoxy-1H-pyrrolo[2,3-b]pyridin-2-yl)-1-methyl-1H-benzo[d]imidazol-5-yl)methanone]
IC50 (hPAD4; pIC50=−log(IC50)): < 1000 nM
pIC50 (hPAD4): > 6.00

COc1cc(C(=O)N2C[C@H]3CC[C@H]2[C@H]3N)cc2nc(-c3cc4cc(NCCC5CC5)ccc4n3CC3CC3)n(C)c12 [Compound I-374, ((1S,4R)-7-amino-2-azabicyclo[2.2.1]heptan-2-yl)(2-(5-((2-cyclopropylethyl)amino)-1-(cyclopropylmethyl)-1H-indol-2-yl)-7-methoxy-1-methyl-1H-benzo[d]imidazol-5-yl)methanone]
IC50 (hPAD4; pIC50=−log(IC50)): < 1000 nM
pIC50 (hPAD4): > 6.00

COc1cc(C(=O)N2C[C@H]3CCC2[C@H]3N)cc2nc(-c3cc4cc(/C=C/C5CC5)ccc4n3CC3CC3)n(C)c12 [Compound I-357]
IC50 (hPAD4; pIC50=−log(IC50)): < 1000 nM
pIC50 (hPAD4): > 6.00

Cn1c(-c2cc3cccnc3n2CC2CC2)nc2cc(C(=O)N3CCC[C@H]4CNC[C@H]43)ccc21 [Compound I-44]
IC50 (hPAD4; pIC50=−log(IC50)): > 100000 nM
pIC50 (hPAD4): < 5.00

From patent US9963448B2, “Bicyclic inhibitors of PAD4” (Padlock Therapeutics, Inc., priority 2015, dated 2018)
